Reference: patent US9629363B2, “Pesticidal compositions and processes related thereto” (Dow AgroSciences LLC, priority 2012, dated 2017)

Experiments:
[1] = tested on: Cabbage Looper (CL) (Trichoplusia ni); assay: Bioassay on cabbage looper (CL), 128-well diet tray assay; format: in vivo; details: Table 3B, read-out: CL Rating
Procedure: (§1) Certain molecules disclosed in this document were tested against BAW and CEW and CL using procedures described in the following examples. In the reporting of the results, the “BAW & CEW & CL Rating Table” was used (See Table Section).
Bioassays on CL were conducted using a 128-well diet tray assay. One to five second instar CL larvae were placed in each well (3 mL) of the diet tray that had been previously filled with 1 mL of artificial diet to which 50 μg/cm^2 of the test compound (dissolved in 50 μL of 90:10 acetone-water mixture) had been applied (to each of eight wells) and then allowed to dry. Trays were covered with a clear self-adhesive cover, and held at 25° C., 14:10 light-dark for five to seven days. Percent mortality was recorded for the larvae in each well; activity in the eight wells was then averaged. The results are indicated in the table entitled “Table 3A: Assay Results” (See Table Section).

[2] = tested on: Beet Armyworm (BAW) (Spodoptera exigua); assay: Bioassay on beet armyworm (BAW), 128-well diet tray assay; format: in vivo; details: for pest or weed control at 50 µg/cm2: Spodoptera exigua, Table 3B, beet armyworm, 128-well diet tray assay, read-out: BAW Rating; for BAW Rating: percent mortality of second instar larvae, 50 μg/cm^2 on artificial diet, five to seven days, 25° C.
Procedure: as §1
Bioassays on BAW were conducted using a 128-well diet tray assay. one to five second instar BAW larvae were placed in each well (3 mL) of the diet tray that had been previously filled with 1 mL of artificial diet to which 50 μg/cm^2 of the test compound (dissolved in 50 μL of 90:10 acetone-water mixture) had been applied (to each of eight wells) and then allowed to dry. Trays were covered with a clear self-adhesive cover, and held at 25° C., 14:10 light-dark for five to seven days. Percent mortality was recorded for the larvae in each well; activity in the eight wells was then averaged. The results are indicated in the table entitled “Table 3: Assay Results” (See Table Section).

SMILES | pest or weed control at 50 µg/cm2 [1] [%] | pest or weed control at 50 µg/cm2 [2] [%] | BAW Rating [2]
CCC(=O)N(C)NC(=O)c1ccc(/C=C/C(c2cc(Cl)c(Cl)c(Cl)c2)C(F)(F)F)cc1C (stereo not drawn) [FA4] | 50 to 100 | 50 to 100 | –
CC(C)(CNC(=O)C(F)(F)F)NC(=O)c1ccc(/C=C/C(c2cc(Cl)c(Cl)c(Cl)c2)C(F)(F)F)cc1C(F)(F)F (stereo not drawn) [FA15] | 50 to 100 | 50 to 100 | –
O=C(NCCNC(=O)C(F)(F)F)c1ccc(/C=C/C(c2cc(Cl)c(Cl)c(Cl)c2)C(F)(F)F)cc1C(F)(F)F (stereo not drawn) [FA10] | 50 to 100 | 50 to 100 | –
Cc1cc(/C=C/C(c2cc(Cl)c(Cl)c(Cl)c2)C(F)(F)F)ccc1C(=O)NN(C)C(=O)C1CC1 (stereo not drawn) [FA5] | 50 to 100 | 50 to 100 | –
CC(C)(CNC(=O)CC(F)(F)F)NC(=O)c1ccc(/C=C/C(c2cc(Cl)c(Cl)c(Cl)c2)C(F)(F)F)cc1C(F)(F)F (stereo not drawn) [FA16] | 50 to 100 | 50 to 100 | –
O=C(NC1CCN(C2COC2)CC1)c1ccc(/C=C/C(c2cc(Cl)c(Cl)c(Cl)c2)C(F)(F)F)cc1Br (stereo not drawn) [AC108, (E)-2-Bromo-N-(1-(oxetan-3-yl)piperidin-4-yl)-4-(4,4,4-trifluoro-3-(3,4,5-trichlorophenyl)but-1-en-1-yl)benzamide] | – | – | B (More than 0-Less than 50)
O=C(NCCc1ccc(Cl)nc1)c1ccc(/C=C/C(c2cc(Cl)c(Cl)c(Cl)c2)C(F)(F)F)cc1Br (stereo not drawn) [AC113] | – | – | B (More than 0-Less than 50)
N#CCN1CCC(NC(=O)c2ccc(/C=C/C(c3cc(Cl)c(Cl)c(Cl)c3)C(F)(F)F)cc2Br)CC1 (stereo not drawn) [AC107] | – | – | B (More than 0-Less than 50)
CN(NC(=O)c1ccc(/C=C/C(c2cc(Cl)c(Cl)c(Cl)c2)C(F)(F)F)cc1C(F)(F)F)C(=O)C(F)(F)C(F)(F)C(F)(F)F (stereo not drawn) [FA11] | 50 to 100 | 50 to 100 | –
FC(F)(F)C(/C=C/c1ccc(-n2cncn2)cc1)c1ccccc1 (stereo not drawn) [DC3] | – | – | B (More than 0-Less than 50)
CN(NC(=O)c1ccc(/C=C/C(c2cc(Cl)c(Cl)c(Cl)c2)C(F)(F)F)cc1C(F)(F)F)C(=O)C1CC1 (stereo not drawn) [FA3] | 50 to 100 | 50 to 100 | –
Cc1cc(/C=C/C(c2cc(Cl)c(Cl)c(Cl)c2)C(F)(F)F)ccc1C(=O)NN(C)C(=O)CCC(F)(F)F (stereo not drawn) [FA6] | 50 to 100 | 50 to 100 | –
CC(C)(CNC(=O)c1ccc(/C=C/C(c2cc(Cl)c(Cl)c(Cl)c2)C(F)(F)F)cc1C(F)(F)F)NC(=O)C(F)(F)F (stereo not drawn) [FA9] | 0 to 50 | – | –
CC(C)(CNC(=O)c1ccc(/C=C/C(c2cc(Cl)c(Cl)c(Cl)c2)C(F)(F)F)cc1C(F)(F)F)NC(=O)CC(F)(F)F (stereo not drawn) [FA8] | 50 to 100 | 50 to 100 | –
O=C(CC(F)(F)F)NCCNC(=O)c1ccc(/C=C/C(c2cc(Cl)c(Cl)c(Cl)c2)C(F)(F)F)cc1C(F)(F)F (stereo not drawn) [FA7] | 50 to 100 | 50 to 100 | –
CCCC(=O)N(C)NC(=O)c1ccc(/C=C/C(c2cc(Cl)c(Cl)c(Cl)c2)C(F)(F)F)cc1C(F)(F)F (stereo not drawn) [FA12] | 50 to 100 | 50 to 100 | –
O=C(CCC(F)(F)F)NNC(=O)c1ccc(/C=C/C(c2cc(Cl)c(Cl)c(Cl)c2)C(F)(F)F)cc1C(F)(F)F (stereo not drawn) [FA14] | 50 to 100 | 50 to 100 | –
CN(NC(=O)c1ccc(/C=C/C(c2cc(Cl)c(Cl)c(Cl)c2)C(F)(F)F)cc1C(F)(F)F)C(=O)CCC(F)(F)F (stereo not drawn) [FA13] | 50 to 100 | 50 to 100 | –
CN(NC(=O)c1ccc(/C=C/C(c2cc(Cl)c(Cl)c(Cl)c2)C(F)(F)F)cc1Br)C(=O)CCC(F)(F)F (stereo not drawn) [FA1] | 50 to 100 | 50 to 100 | –
CCNC(=O)NCc1ccc(/C=C/C(c2cc(Cl)cc(Cl)c2)C(F)(F)F)cc1Cl (stereo not drawn) [CC31, (E)-1-(2-Chloro-4-(3-(3,5-dichlorophenyl)-4,4,4-trifluorobut-1-en-1-yl)benzyl)-3-ethylurea] | – | – | B (More than 0-Less than 50)
CN(NC(=O)c1ccc(/C=C/C(c2cc(Cl)c(Cl)c(Cl)c2)C(F)(F)F)cc1Br)C(=O)CC(F)(F)F (stereo not drawn) [FA2] | 50 to 100 | 50 to 100 | –
